Reference: US20240051960A1, “SPIROCYCLIC IMIDAZOLIDINONES AND IMIDAZOLIDINEDIONES FOR TREATMENT OF LIGHT CHAIN AMYLOIDOSIS” (Protego Biopharma, Inc., priority 2021, published 2024)

Test system: Recombinant amyloidogenic full length light chain protein WIL-FL T46L
Experiment: Differential Scanning Fluorimetry (thermal shift) assay
Assay type: binding
Settings: protein and compounds incubated at RT for 30 min before adding the dye, Thermal Shift Protein Stability Kit, 96-well plates
Experimental: Differential Scanning Fluorimetry Assay
The stabilization effects the compounds have on the immunoglobulin light chain protein is quantitively measured using a thermal shift assay. Recombinant amyloidogenic full length light chain protein WIL-FL T46L is produced in E. coli, purified, and used in the assay. The Thermal Shift Protein Stability Kit from Biotium is used and the assay is done in 96-well Plates following the manufacture's instructions. The protein and compounds are incubated at RT for 30 min before adding the dye and subjected to the thermal shift assay. The thermal stability of each sample is then determined using standard curve fitting methods.
Compounds that induce shifts in the ranges below are listed in the table below: • 0-0.5° C.=* • >0.5-1° C.=** • >1-1.5° C.=*** • >1.5° C.=****

O=C(CN1C(=O)NC2(CCN(c3c[nH]c(=O)[nH]c3=O)CC2)C1=O)Nc1ccc(C(F)(F)F)cc1 [Compound 90]
Thermal Shift: **** (>1.5° C.=****)
